# According to patent publication US20240189263A1, “DERIVATIZED C60 MOLECULES AND METHODS AND MATERIALS FOR USING DERIVATIZED C60 MOLECULES TO REDUCE RADIATION INJURY” (Mayo Foundation for Medical Education and Research, priority 2021, published 2024):
# Key:
# Assay type in all cases: cell-based
# [1] = tested on: NIH3T3 cells; test: MTS cytotoxicity assay, NIH3T3
# Method: (§1) Cytotoxicity of C60-ser was determined by an MTS (3-(4,5-dimethylthiazol-2-yl)-5-(3-carboxymethoxyphenyl)-2-(4-sulfophenyl)-2H-tetrazolim) colorimetric assay on four different cell lines, each representing a different cell type. Specifically, HepG2 (liver epithelium), HUVEC (endothelial cells), N2A (neuroblastoma cells representative of normal neurons), and NIH3T3 (fibroblasts) were analyzed. The cells were seed in a 96-well tissue culture polystyrene plate at different seeding concentrations based on the cell's doubling time. HUVEC cells were seeded at 10,000 cells/well (24 hour experiments), 8,000 cells/well (48 hour experiments), and 5,000 cells/well (72 hour experiments), and incubated for 24 hours in a humidified atmosphere with 5% C02 at 37° C. […] After incubation with MTS, the optical density (OD) of the resulting formazan solution was read at 490 nm using a microplate reader (Biotek Cytation 5 cell Imaging Multi-Mode reader, Winooski, VT). The cell viability was obtained by normalizing the absorbance of the sample with that of the control wells containing untreated cells. The cell viability was expressed as a percentage, assigning the viability of non-treated cells as 100%. […]
# [2] = tested on: HepG2 cells; test: MTS cytotoxicity assay, HepG2; details: HepG2, 1-1000 μM, 24, 48 or 72 hours
# Method: as §1
# [3] = tested on: HepG2 cells; test: DNA damage, γH2AX foci immunofluorescence, HepG2
# Method: To test the ability of C60-ser to protect against radiation injury, the level of DNA damage in response to radiation was analyzed by measuring γH2AX. The H2AX protein becomes phosphorylated into γH2AX as a result of DNA double strand breaks. This allows for the visualization and quantification of double strand break foci through immunofluorescence analysis. Cells were plated on 8 chamber slides and incubated overnight before C60-ser treatment. Three sets of slides per cell line (to be irradiated with 0, 0.5, and 1 Gy) were prepared, with the top 4 rows used as a control and the bottom 4 rows incubated with 100 μM C60-ser. Cells were incubated with C60-ser for 2 hours before irradiation with a clinical Proteus One proton machine (Ion Beam Applications, Louvain-la-Neuve, Belgium). A 230 MeV mono-energetic unmodulated broad beam of large field size that encompassed all slides containing the cells was used to deliver the 0.5 and 1 Gy doses. White solid water slabs (IBA Dosimetry, Germany) provided the necessary phantom material to place the cells at the desired 8 cm depth with an LET of approximately 1.7 keV/μm. After irradiation, cells were incubated at 37° C. with 5% CO2 for 30 minutes before washing and fixing the cells with 1% formaldehyde. The cells were permeabilized with 1% NP-40 and incubated with 5% BSA to block unspecific antibody bonding. The cells were then incubated with γH2AX primary antibody followed by a secondary antibody. Mounting media containing DAPI was used before applying cover slips and sealing the samples. Cells were imaged on an Olympus IX71 trinocular inverted fluorescence phase contrast microscope with a 40× objective. The resulting images were analyzed by ImageJ, and the foci were counted.
# [4] = tested on: NIH3T3 cells; test: Classic clonogenics survival assay of irradiated cells, NIH3T3
# Method: A classic clonogenics assay was performed to further test the ability of C60-ser to protect against radiation damage. After irradiation, a fraction of the cells will undergo radiation-induced death, whereas other cells remain metabolically active and are able to undergo a few cycles of mitosis before meeting their endpoint. Since many cells remain metabolically activity, classic toxicity measurements such as an MTT measurement are not able to catch the full effects of radiation damage. In contrast, a classic clonogenics assay, which plates a known number of cells and tracks development of colonies, is able to track the number of cells that maintain their clonogenicity. With increasing radiation doses, the fraction of cells that maintain clonogenicity decrease. Therefore, a successful radioprotectant is able to increase the number of surviving colonies compared to the control at the same radiation doses.
# N2A, NIH3T3, and HepG2 cells were plated in 35 mm dishes and treated with 100 μM C60-ser for 2 hours prior to washing with PBS and irradiation at 0, 2, 4, and 6 Gy with a 230 MeV proton beam. Following radiation, a known number of cells were re-plated in six well plates and allowed to grow in culture for 8-14 days to allow for colony formation. To account for cell death with higher radiation doses, a larger number of cells were plated with increasing doses received. […]
# [5] = tested on: NIH3T3 cells; test: Seahorse mitochondrial respiration (oxygen consumption rate), NIH3T3; details: NIH3T3, pretreated 2 hours before 1 Gy 230 MeV proton
# Method: The oxygen consumption rates were assessed in N2A, HUVEC, NIH3T3, and HepG2 cell lines with a Seahorse XFe96 (Agilent Technologies, Santa Clara, CA, USA). Cells were treated with 0 and 1 Gy of 230 MeV proton irradiation. The control plates were run at about the same time post plating. Each cell line was optimized prior to these experiments, and data was presented normalized to cell number plated. The standard mitochondrial stress test was performed using serial injections of oligomycin (1.5 μM), carbonyl cyanide p-(trifluoromethoxy)phenylhydrazone (FCCP, 1 μM), and rotenone/antimycin A mixture (0.5 μM). After injection of oligomycin, which inhibits ATP synthase (complex V), there was a drop in electron flow through the electron transport chain (ETC) and a resultant drop in oxygen consumption rate (OCR) of the cells. Injection of FCCP collapsed the proton gradient and allowed for uninhibited electron flow through the ETC supercomplexes. […] The reserve respiratory capacity was calculated by subtracting the basal respiratory capacity from the maximal respiratory capacity.
smiles,measurement,setting,value
"O=C(NC(CO)CO)C1(C(=O)NC(CO)CO)C23c4c5c6c7c8c4-c4c2c2c9c%10c4C4%11c%12c-%10c%10c%13c%14c%12-c%12c(c-7c7c%15c%12C%14%12C(C(=O)NC(CO)CO)(C(=O)NC(CO)CO)C%12%14c%12c%16c%17c%18c(c%12-%15)C7%12C(C(=O)NC(CO)CO)(C(=O)NC(CO)CO)C6%12c6c-5c5c7c(c6-%18)C%176C(C(=O)NC(CO)CO)(C(=O)NC(CO)CO)C6%12c6c-7c(c-2c2c6-c6c%12c-%16c%14c-%13c6C%106C(C(=O)NC(CO)CO)(C(=O)NC(CO)CO)C926)C513)C84C%11(C(=O)NC(CO)CO)C(=O)NC(CO)CO (stereo not drawn) [C60-ser, C60-serinol]",percent viability at the highest dose,"[1]; NIH3T3, 1000 μM",downward trend
same,percent viability,"[1]; NIH3T3, 1-1000 μM, 24, 48 or 72 hours",did not result in a significant decrease in viability
same,percent viability,[2],did not result in a significant decrease in viability
same,γH2AX foci vs control,"[3]; HepG2, 100 μM 2 hours before 0.5 Gy proton radiation","trend towards reduction in total foci formed, but it was not statistically significant"
same,γH2AX foci vs control,"[3]; HepG2, 100 μM 2 hours before 1 Gy proton radiation",significant decrease in the number of foci
same,γH2AX foci vs control,"[3]; HepG2, 100 μM 2 hours, absence of radiation",no significant different in foci expression
same,fraction of surviving cells,"[4]; NIH3T3, 100 μM 2 hours before irradiation",increased the fraction of surviving cells
same,dose enhancement factor (DEF) at 20% surviving fraction,"[4]; NIH3T3, 100 μM 2 hours, 0-6 Gy 230 MeV proton",0.85±0.03
same,radiation-induced increase in respiratory capacity,[5],"dampened and, in some cases, reduced to normal or slightly below normal levels"
